Assay results taken from US20240343727A1, “PYRIDAZINONE OR PYRIDINONE COMPOUNDS, PREPARATION METHODS AND USES THEREOF” (InventisBio Co., Ltd., priority 2021, published 2024).

Legend:
PARP7 = biological target: T1, PARP7 (Homo sapiens, UniProt Q7Z3E1); assay: PARP7 TR-FRET assay (binding, displacement of biotinylated Probe A); conditions: 6 nM PARP7, 2 nM Probe A, 25° C., 30 min
T1 sequence (Q7Z3E1 1-657): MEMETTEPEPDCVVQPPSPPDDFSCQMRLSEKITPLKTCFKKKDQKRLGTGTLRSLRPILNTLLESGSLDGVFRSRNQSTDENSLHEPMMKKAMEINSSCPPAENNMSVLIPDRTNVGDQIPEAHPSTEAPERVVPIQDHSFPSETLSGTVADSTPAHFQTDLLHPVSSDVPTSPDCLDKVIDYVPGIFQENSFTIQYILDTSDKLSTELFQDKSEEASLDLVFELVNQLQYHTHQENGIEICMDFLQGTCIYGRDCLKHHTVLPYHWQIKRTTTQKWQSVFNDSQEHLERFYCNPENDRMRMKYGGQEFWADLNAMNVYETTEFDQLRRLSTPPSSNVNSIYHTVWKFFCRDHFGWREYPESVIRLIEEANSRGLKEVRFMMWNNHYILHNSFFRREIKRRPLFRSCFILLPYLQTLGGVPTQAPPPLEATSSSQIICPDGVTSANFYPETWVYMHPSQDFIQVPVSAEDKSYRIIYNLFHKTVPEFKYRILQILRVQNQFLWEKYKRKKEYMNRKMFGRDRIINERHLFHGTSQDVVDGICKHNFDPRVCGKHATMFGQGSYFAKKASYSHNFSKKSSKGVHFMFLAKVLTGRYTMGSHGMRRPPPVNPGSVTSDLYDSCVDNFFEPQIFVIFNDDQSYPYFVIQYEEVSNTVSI
Procedure, shortened: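 His-tagged PARP7 at 6 nM was preincubated with compound and 2 nM biotinylated Probe A for 30 min at 25° C (HEPES pH 8.0, NaCl, BSA, DTT, Tween20). Europium-streptavidin/ULight-anti-His FRET was read as the 665/615 nm ratio after a further 30 min. IC50 was fitted from % inhibition normalised to vehicle and blank.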

NCI-H1373 cells = assay: Inhibition of cancer cell growth in NCI-H1373 cells (Cell-titer Glo, 6 days); format: cell-based; conditions: Homo sapiens, NCI-H1373, 144 h, read-out: H1373 Cell Proliferation IC50
Procedure: Biological Assay Example B: Inhibition of cancer cell growth in NCI-H1373 cells by PARP7 inhibitors
NCI-H1373 cells were cultured in RPMI 1640 medium supplemented with 10% fetal bovine serum, 100 U/mL penicillin and 100 ug/mL streptomycin in a 37° C., 5% CO2 incubator. Fifteen hundred cells were seeded into each well of 96-well plate in RPMI1640 medium containing 10% fetal bovine serum and incubated overnight. Serial diluted compounds for each well were added at a final DMSO concentration of 0.5% and a day zero plate was collected for analysis. Compounds were incubated with the cells for 6 days. Cell growth was assessed using Cell-titer Glo reagent (Promega #G^7572). The luminescence signal was collected on Tecan Spark plate reader. Cell growth is determined by correcting for the cell count on day zero. Inhibition rate is calculated with the formula of % inhibition=100*(DMSO control-compounds)/(DMSO control-Blank). Cell growth inhibition IC50 is calculated with the equation of Y-Bottom+ (Top-Bottom)/(1+10^((LogIC50−X) *Hill Slope)).

tumor = conditions: according to the description in clinicaltrials.gov (NCT04053673); cited from earlier work

SMILES	IC50 (PARP7)	IC50 (NCI-H1373 cells)	tumor growth in animal studies (tumor)
Cc1c(Oc2cccc(C(=O)N3CCN(c4ccc(C#N)cn4)CC3)c2)n[nH]c(=O)c1C(F)(F)F [Compound 27]	< 100 nM	100 to 1000 nM	–
O=C(C[C@@H]1CN(c2cc(C(F)(F)F)c(=O)[nH]n2)c2ccccc2O1)N1CCN(c2ncc(C(F)(F)F)cn2)CC1 [Compound 34]	< 100 nM	< 100 nM	–
O=C(C[C@H]1CN(c2cc(C(F)(F)F)c(=O)[nH]n2)c2ccccc2O1)N1CCN(c2ncc(C(F)(F)F)cn2)CC1 [Compound 35]	100 to 1000 nM	> 1000 nM	–
O=C(CC[C@@H]1CCCN1c1n[nH]c(=O)c2ccccc12)N1CCN(c2ncc(C(F)(F)F)cn2)CC1 [Compound 48]	< 100 nM	< 100 nM	–
COC[C@@H]1C[C@@H](OCC(=O)N2CCN(c3ncc(C(F)(F)F)cn3)CC2)c2n[nH]c(=O)c(C(F)(F)F)c2O1 [Compound 57]	< 100 nM	< 100 nM	–
Cc1c(Oc2cc(C(=O)N3CCN(c4ncc(C(F)(F)F)cn4)CC3)ccc2F)n[nH]c(=O)c1C(F)(F)F [Compound 63]	< 100 nM	100 to 1000 nM	–
O=C(c1cccc(Oc2n[nH]c(=O)c(C(F)(F)F)c2CO)c1)N1CCN(c2ncc(C(F)(F)F)cn2)CC1 [Compound 71]	100 to 1000 nM	> 1000 nM	–
Cn1ccc2c(=O)[nH]nc(Oc3cccc(C(=O)N4CCN(c5ncc(C(F)(F)F)cn5)CC4)c3)c21 [Compound 73]	< 100 nM	100 to 1000 nM	–
Cc1c(N2CCOc3ccc(C(=O)N4CCN(c5ncc(C(F)(F)F)cn5)CC4)cc32)n[nH]c(=O)c1C(F)(F)F [Compound 78]	100 to 1000 nM	100 to 1000 nM	–
O=C(CC[C@@H]1CCCN1c1cc(C(F)(F)F)c(=O)[nH]n1)N1CCN(c2ncc(C(F)(F)F)cn2)CC1 [Compound 86]	< 100 nM	< 100 nM	–
C#Cc1ccc2c(c1)N(c1cc(C(F)(F)F)c(=O)[nH]n1)CC(CC(=O)N1CCN(c3ncc(C(F)(F)F)cn3)CC1)O2 (stereo not shown) [Compound 149]	< 100 nM	< 100 nM	–
C[C@@H]1CC[C@@H](CCC(=O)N2CCN(c3ncc(C(F)(F)F)cn3)CC2)N1c1cc(C(F)(F)F)c(=O)[nH]n1 [Compound 156]	< 100 nM	< 100 nM	–
COC1CC(Nc2c(Oc3cccc(C(=O)N4CCN(c5ncc(C(F)(F)F)cn5)CC4)c3)n[nH]c(=O)c2C(F)(F)F)C1 (stereo not shown) [Compound 168]	< 100 nM	100 to 1000 nM	–
N#Cc1cnc(N2CCN(C(=O)c3cccc(Oc4n[nH]c(=O)c(C(F)(F)F)c4N4CC5(CCC5)C4)c3)CC2)nc1 [Compound 179]	< 100 nM	< 100 nM	–
O=C(c1cccc(Oc2n[nH]c(=O)c(C(F)(F)F)c2N2CC3(CCC3)C2)c1)N1CCN(c2cnc(C(F)(F)F)cn2)CC1 [Compound 188]	< 100 nM	< 100 nM	–
O=C(c1cccc(Oc2n[nH]c(=O)c(C(F)(F)F)c2N2CC3(CCC3)C2)c1)N1CCN(c2ncc(Cl)cn2)CC1 [Compound 199]	< 100 nM	< 100 nM	–
N#Cc1ccc(N2CCN(C(=O)c3cccc(Oc4n[nH]c(=O)c(C(F)(F)F)c4N4CC5(CCCO5)C4)c3)CC2)nc1 [Compound 223]	< 100 nM	100 to 1000 nM	–
O=C(c1cc(Oc2n[nH]c(=O)c(C(F)(F)F)c2N2CC3(CCC3)C2)ccn1)N1CCN(c2ncc(C(F)(F)F)cn2)CC1 [Compound 229]	< 100 nM	< 100 nM	–
N#Cc1cnc(N2CCN(C(=O)c3cncc(Oc4n[nH]c(=O)c(C(F)(F)F)c4N4CC5(C4)CC(F)(F)C5)c3)CC2)nc1 [Compound 236]	< 100 nM	100 to 1000 nM	–
C[C@@H]1CN(C(=O)c2cccc(Oc3n[nH]c(=O)c(C(F)(F)F)c3N3CC4(CCO4)C3)c2)CCN1c1ncc(C(F)(F)F)cn1 [Compound 252]	< 100 nM	< 100 nM	–
O=C(c1cc(Oc2n[nH]c(=O)c(C(F)(F)F)c2N2CC3(CCC3)C2)ccn1)N1CCN(c2cnc(C(F)(F)F)cn2)CC1 [Compound 272]	< 100 nM	< 100 nM	–
O=C(c1cncc(Oc2n[nH]c(=O)c(C(F)(F)F)c2N2CC(C3CC3)C2)c1)N1CCN(c2ncc(Cl)cn2)CC1 [Compound 280]	< 100 nM	100 to 1000 nM	–
C[C@@H]1CN(C(=O)c2cncc(Oc3n[nH]c(=O)c(C(F)(F)F)c3N3CC4(C3)CC(F)(F)C4)c2)CCN1c1ncc(Cl)cn1 [Compound 321]	< 100 nM	< 100 nM	–
O=C(c1cc(Oc2n[nH]c(=O)c(C(F)(F)F)c2N2CC3(C2)CC(F)(F)C3)ccn1)N1CCN(c2cnc(C(F)(F)F)cn2)CC1 [Compound 331]	< 100 nM	< 100 nM	–
CCOC1CN(c2c(Oc3ccnc(C(=O)N4CCN(c5ncc(C(F)(F)F)cn5)[C@H](C)C4)c3)n[nH]c(=O)c2C(F)(F)F)C1 [Compound 339]	< 100 nM	< 100 nM	–
CC(C)(O)c1cnc(N2CCN(C(=O)c3cccc(Oc4n[nH]c(=O)c(C(F)(F)F)c4N4CC5(CCC5)C4)c3)CC2)nc1 [Compound 349]	< 100 nM	< 100 nM	–
C[C@@H]1CN(C(=O)c2cc(Oc3n[nH]c(=O)c(C(F)(F)F)c3N3CC4(CCC4)C3)ccn2)CCN1c1cnc(C(F)(F)F)cn1 [Compound 353]	< 100 nM	< 100 nM	–
C[C@@H](COCCC(=O)N1CCN(c2ncc(C(F)(F)F)cn2)CC1)Nc1cn[nH]c(=O)c1C(F)(F)F [RBN2397]	–	–	inhibit tumor growth
